Assay results: ChEMBL document CHEMBL5352469, “Solubility-driven optimization of benzothiopyranone salts leading to a preclinical candidate with improved pharmacokinetic properties and activity against Mycobacterium tuberculosis” (Eur J Med Chem, 2023)
≈ marks a conversion by molar mass, not a printed value.

Assays:
[1] = test system: Mycobacterium tuberculosis; experiment: Antibacterial activity against Mycobacterium tuberculosis H37Rv BALB/c mouse model assessed as reduction in delta CFU in lungs at 25 mg/kg via oral gavage for 30 days; type: functional; conditions: time 30 day
[2] = test system: Mycobacterium tuberculosis; experiment: Antibacterial activity against Mycobacterium tuberculosis H37Rv BALB/c mouse model assessed as reduction in CFU in lungs at 25 mg/kg via oral gavage for 30 days (reference value: 5.92 +/-0.29); type: functional; conditions: time 30 day
[3] = Aqueous solubility of compound by HPLC-PDA method; type: physicochemical; conditions: buffer
[4] = AUC (0 to t) in Balb/c mouse at 50 mg/kg, po measured upto 24 hrs by LC/MS/MS analysis; type: ADME, organism-based; design: dose 50 mg/kg, time < 24 hrs, route po; conditions: Balb/c, in vivo
[5] = Elimination half life in Balb/c mouse at 5 mg/kg, iv measured upto 24 hrs by LC/MS/MS analysis; type: ADME, organism-based; conditions: in vivo, read-out: beta t1/2 (converted)
[6] = AUC (0 to t) in Balb/c mouse at 5 mg/kg, iv measured upto 24 hrs by LC/MS/MS analysis; type: ADME, organism-based; design: time < 24 hrs, dose 5 mg/kg, route iv; conditions: Balb/c, in vivo
[7] = Cmax in Balb/c mouse at 5 mg/kg, iv measured upto 24 hrs by LC/MS/MS analysis; type: ADME, organism-based; design: dose 5 mg/kg, time < 24 hrs, route iv; conditions: in vivo
[8] = Tmax in Balb/c mouse at 50 mg/kg, po measured upto 24 hrs by LC/MS/MS analysis; type: ADME, organism-based; conditions: in vivo
[9] = Apparent permeability across basolateral to apical side in human Caco-2 cells incubated for 21 days; type: ADME, cell-based; conditions: time 21 day
[10] = Oral bioavailability in Balb/c mouse at 50 mg/kg measured upto 24 hrs by LC/MS/MS analysis; type: ADME, organism-based; conditions: Balb/c, in vivo
[11] = Elimination half life in Balb/c mouse at 50 mg/kg, po measured upto 24 hrs by LC/MS/MS analysis; type: ADME, organism-based; conditions: in vivo, read-out: beta t1/2 (converted)
[12] = Apparent permeability across apical to basolateral side in human Caco-2 cells incubated for 21 days; type: ADME, cell-based; conditions: time 21 day
[13] = Cmax in Balb/c mouse at 50 mg/kg, po measured upto 24 hrs by LC/MS/MS analysis; type: ADME, organism-based; design: time < 24 hrs, dose 50 mg/kg, route po; conditions: in vivo
[14] = Efflux ratio of apparent permeability across basolateral to apical side over apical to basolateral side in human Caco-2 cells; type: ADME, cell-based

SMILES: NNC(=O)c1ccncc1 [ISONIAZID]
- Activity [1]: 3.89 log10CFU
- Activity [2]: 3.64 log10CFU

SMILES: O=c1nc(N2CCN(CC3CCCCC3)CC2)sc2c([N+](=O)[O-])cc(C(F)(F)F)cc12 [MACOZINONE]
- solubility [3]: 0.11 µg/mL (≈ 0.241 µM)

SMILES: O=C(O)/C=C/C(=O)O.O=C(O)/C=C/C(=O)O.O=C(O)/C=C/C(=O)O.O=c1cc(N2CCN(CC3CCCCC3)CC2)sc2c([N+](=O)[O-])cc(C(F)(F)F)cc12.O=c1cc(N2CCN(CC3CCCCC3)CC2)sc2c([N+](=O)[O-])cc(C(F)(F)F)cc12
- AUC(0-t) at 24 h [4]: 3440 ng·h/mL
- half-life [5]: 6.98 h
- AUC(0-t) at 24 h [6]: 1990 ng·h/mL
- Cmax [7]: 2760 ng/mL
- Tmax [8]: 0.67 h
- Papp B→A [9]: 0.11 ×10⁻⁶ cm/s
- solubility ([3]; read-out: solubility): 132 µg/mL
- bioavailability [10]: 18.9%
- half-life [11]: 8.03 h
- Papp A→B [12]: 7.79 ×10⁻⁶ cm/s
- Cmax [13]: 542 ng/mL

SMILES: O=C(O)CC(O)(CC(=O)O)C(=O)O.O=C(O)CC(O)(CC(=O)O)C(=O)O.O=C(O)CC(O)(CC(=O)O)C(=O)O.O=c1cc(N2CCN(CC3CCCCC3)CC2)sc2c([N+](=O)[O-])cc(C(F)(F)F)cc12.O=c1cc(N2CCN(CC3CCCCC3)CC2)sc2c([N+](=O)[O-])cc(C(F)(F)F)cc12
- Papp B→A [9]: 0.26 ×10⁻⁶ cm/s
- solubility ([3]; read-out: solubility): 128 µg/mL
- efflux ratio [14]: 0.1
- Papp A→B [12]: 4.08 ×10⁻⁶ cm/s
